# Laboratory results: ChEMBL document CHEMBL1126980, “New, potent anthelmintic and acaricidal agents: 4-deoxy-4-thio-substituted avermectin derivatives” (Bioorg Med Chem Lett, 1993)
# What was measured:
# [1] = system: Ovis aries; assay: Tested for the anthelmintic efficacy against Oesphagostomum columbianum at 0.1 mg/kg; range is 91-100%; format: functional
# [2] = system: Ovis aries; assay: Tested for the anthelmintic efficacy against Trichostrongylus axei at 0.1 mg/kg; range is 91-100%; format: functional
# [3] = system: Tetranychus urticae; assay: Tested for acaricidal efficacy using a Tetranychus urticae (two-spotted spider mite, TSSM) contact assay; format: functional; design: concentration or dose not given beside the values
# [4] = system: Trichostrongylus colubriformis; assay: Tested in vivo for the biological efficacy using Trichostrongylus colubriformis gerbil assay; format: functional
# [5] = system: Caenorhabditis elegans; assay: Tested in vitro for the biological efficacy using Caenorhabditis elegans binding assay; format: functional, organism-based
# [6] = system: Ovis aries; assay: Tested for the anthelmintic efficacy against Cooperia curticei at 0.1 mg/kg; range is 51-75%; format: functional
# [7] = system: Ovis aries; assay: Tested for anthelmintic efficacy against Haemonchus contortus at 0.1 mg/kg; range is 91-100%; format: functional
# [8] = system: Artemia salina; assay: Tested in vitro for the biological efficacy using Artemia salina (brine shrimp) immobilization assay; format: functional
# [9] = system: Ovis aries; assay: Tested for the anthelmintic efficacy against Ostertagia circumcincta at 0.1 mg/kg; range is 91-100%; format: functional
# [10] = system: Ovis aries; assay: Tested for the anthelmintic efficacy against Trichostrongylus colubriformis at 0.1 mg/kg; range is 76-90%; format: functional
# [11] = system: Ovis aries; assay: Tested for the anthelmintic efficacy against Cooperia curticei at 0.1 mg/kg; format: functional
# [12] = system: Ovis aries; assay: Tested for the anthelmintic efficacy against Trichostrongylus axei at 0.1 mg/kg; range is 76-90%; format: functional
# [13] = system: Ovis aries; assay: Tested for the anthelmintic efficacy against Trichostrongylus colubriformis at 0.1 mg/kg; range is 91-100%; format: functional
# [14] = system: Ovis aries; assay: Tested for the anthelmintic efficacy against Ostertagia circumcincta at 0.1 mg/kg; range is 76-90%; format: functional
# [15] = system: Ovis aries; assay: Tested for the anthelmintic efficacy against Cooperia curticei at 0.1 mg/kg; range is 91-100%; format: functional
# [16] = system: Ovis aries; assay: Tested for the anthelmintic efficacy against Trichostrongylus colubriformis at 0.1 mg/kg; range is 51-75%; format: functional
# [17] = system: Ovis aries; assay: Tested for the anthelmintic efficacy against Ostertagia circumcincta at 0.1 mg/kg; range is 51-75%; format: functional
# [18] = system: Ovis aries; assay: Tested for the anthelmintic efficacy against Cooperia curticei at 0.1 mg/kg; range is 76-90%; format: functional
# [19] = system: Ovis aries; assay: Tested for anthelmintic efficacy against Haemonchus contortus at 0.15 mg/kg; range is 76-90%; format: functional
# [20] = system: Ovis aries; assay: Tested for the anthelmintic efficacy against Oesphagostomum columbianum at 0.15 mg/kg; format: functional
# [21] = system: Ovis aries; assay: Tested for the anthelmintic efficacy against Ostertagia circumcincta at 0.15 mg/kg; range is 76-90%; format: functional
# [22] = system: Ovis aries; assay: Tested for the anthelmintic efficacy against Trichostrongylus axei at 0.15 mg/kg; range is 91-100%; format: functional
# [23] = system: Ovis aries; assay: Tested for the anthelmintic efficacy against Trichostrongylus colubriformis at 0.15 mg/kg; range is 91-100%; format: functional
# [24] = system: Ovis aries; assay: Tested for the anthelmintic efficacy against Cooperia curticei at 0.15 mg/kg; range is 91-100%; format: functional
SMILES,Reduction [1] [%],Reduction [2] [%],Mortality [3] [%],ED85 [4] [mg/kg],IC50 [5] [ng/mL],Reduction [7] [%],IC100 [8] [ng/mL],Reduction [9] [%],Reduction [13] [%],Reduction [15] [%],other results
CCC(C)[C@H]1O[C@]2(C=C[C@@H]1C)C[C@@H]1C[C@@H](C/C=C(\C)[C@@H](O[C@H]3C[C@H](OC)[C@@H](O[C@H]4C[C@H](OC)[C@H](S(=O)(=O)CCO)[C@H](C)O4)[C@H](C)O3)[C@@H](C)/C=C/C=C3\CO[C@@H]4[C@H](O)C(C)=C[C@@H](C(=O)O1)[C@]34O)O2 (some centres not stated),91,91,34,0.063,0.363,91,870,91,,,Reduction [6]: 51%; Reduction [10]: 76%
CCC(C)[C@H]1O[C@]2(C=C[C@@H]1C)C[C@@H]1C[C@@H](C/C=C(\C)[C@@H](O[C@H]3C[C@H](OC)[C@@H](O[C@H]4C[C@H](OC)[C@H](SCCOC(C)=O)[C@H](C)O4)[C@H](C)O3)[C@@H](C)/C=C/C=C3\CO[C@@H]4[C@H](O)C(C)=C[C@@H](C(=O)O1)[C@]34O)O2 (some centres not stated),91,,68,0.125,0.525,91,1730,91,91,,Reduction [11]: <50%; Reduction [12]: 76%
CCC(C)[C@H]1O[C@]2(C=C[C@@H]1C)C[C@@H]1C[C@@H](C/C=C(\C)[C@@H](O[C@H]3C[C@H](OC)[C@@H](O[C@H]4C[C@H](OC)[C@@H](S(C)(=O)=O)[C@H](C)O4)[C@H](C)O3)[C@@H](C)/C=C/C=C3\CO[C@@H]4[C@H](O)C(C)=C[C@@H](C(=O)O1)[C@]34O)O2 (some centres not stated),91,91,85,0.125,0.098,91,430,,91,91,Reduction [14]: 76%
CCC(C)[C@H]1O[C@]2(C=C[C@@H]1C)C[C@@H]1C[C@@H](C/C=C(\C)[C@@H](O[C@H]3C[C@H](OC)[C@H](SCCNC(C)=O)[C@H](C)O3)[C@@H](C)/C=C/C=C3\CO[C@@H]4[C@H](O)C(C)=C[C@@H](C(=O)O1)[C@]34O)O2 (some centres not stated),91,91,,0.063,,91,430,91,91,,Reduction [11]: <50%
CCC(C)[C@H]1O[C@]2(C=C[C@@H]1C)C[C@@H]1C[C@@H](C/C=C(\C)[C@@H](O[C@H]3C[C@H](OC)[C@@H](O[C@H]4C[C@H](OC)[C@H](SCCNC(C)=O)[C@H](C)O4)[C@H](C)O3)[C@@H](C)/C=C/C=C3\CO[C@@H]4[C@H](O)C(C)=C[C@@H](C(=O)O1)[C@]34O)O2 (some centres not stated),91,91,29,0.031,0.127,91,870,91,,91,Reduction [16]: 51%
CCC(C)[C@H]1O[C@]2(C=C[C@@H]1C)C[C@@H]1C[C@@H](C/C=C(\C)[C@@H](O[C@H]3C[C@H](OC)[C@@H](O[C@H]4C[C@H](OC)[C@H](S(C)(=O)=O)[C@H](C)O4)[C@H](C)O3)[C@@H](C)/C=C/C=C3\CO[C@@H]4[C@H](O)C(C)=C[C@@H](C(=O)O1)[C@]34O)O2 (some centres not stated),91,91,45,0.063,0.132,91,430,91,91,91,
CCC(C)[C@H]1O[C@]2(C=C[C@@H]1C)C[C@@H]1C[C@@H](C/C=C(\C)[C@@H](O[C@H]3C[C@H](OC)[C@@H](O[C@H]4C[C@H](OC)[C@H](SCCO)[C@H](C)O4)[C@H](C)O3)[C@@H](C)/C=C/C=C3\CO[C@@H]4[C@H](O)C(C)=C[C@@H](C(=O)O1)[C@]34O)O2 (some centres not stated),91,91,55,0.063,0.784,91,650,91,,,Reduction [11]: <50%; Reduction [10]: 76%
CCC(C)[C@H]1O[C@]2(C=C[C@@H]1C)C[C@@H]1C[C@@H](C/C=C(\C)[C@@H](O[C@H]3C[C@H](OC)[C@@H](O[C@H]4C[C@H](OC)[C@@H](SC)[C@H](C)O4)[C@H](C)O3)[C@@H](C)/C=C/C=C3\CO[C@@H]4[C@H](O)C(C)=C[C@@H](C(=O)O1)[C@]34O)O2 (some centres not stated),91,,98,0.25,0.226,91,3470,,,,Reduction [16]: 51%; Reduction [12]: 76%; Reduction [17]: 51%; Reduction [18]: 76%
CCC(C)[C@H]1O[C@]2(C=C[C@@H]1C)C[C@@H]1C[C@@H](C/C=C(\C)[C@@H](O[C@H]3C[C@H](OC)[C@@H](O[C@H]4C[C@H](OC)[C@H](SC)[C@H](C)O4)[C@H](C)O3)[C@@H](C)/C=C/C=C3\CO[C@@H]4[C@H](O)C(C)=C[C@@H](C(=O)O1)[C@]34O)O2 (some centres not stated),91,91,92,0.063,0.06,91,1730,,,91,Reduction [14]: 76%; Reduction [10]: 76%
CCC(C)[C@H]1O[C@]2(C=C[C@@H]1C)C[C@@H]1C[C@@H](C/C=C(\C)[C@@H](O[C@H]3C[C@H](OC)[C@H](S(=O)(=O)CCO)[C@H](C)O3)[C@@H](C)/C=C/C=C3\CO[C@@H]4[C@H](O)C(C)=C[C@@H](C(=O)O1)[C@]34O)O2 (some centres not stated),,,94,> 0.25,,,870,,,,Reduction [19]: 76%; Reduction [20]: <50%; Reduction [21]: 76%; Reduction [22]: 91%; Reduction [23]: 91%; Reduction [24]: 91%
CCC(C)[C@H]1O[C@]2(C=C[C@@H]1C)C[C@@H]1C[C@@H](C/C=C(\C)[C@@H](O[C@H]3C[C@H](OC)[C@@H](O[C@H]4C[C@H](OC)[C@@H](O)[C@H](C)O4)[C@H](C)O3)[C@@H](C)/C=C/C=C3\CO[C@@H]4[C@H](O)C(C)=C[C@@H](C(=O)O1)[C@]34O)O2 (some centres not stated) [AVERMECTIN],91,91,95,0.031,0.073,91,400,91,91,91,
